Assay results reported in patent US9353083B2, “Oxazetidine derivatives, process for preparing them and use in human medicine and in cosmetics” (GALDERMA RESEARCH & DEVELOPMENT, priority 2011, dated 2016).
pEC50, pIC50: −log10 of the molar value.

Tests used:
Format in all cases: cell-based
[1] = molecular target: hERG potassium channel (Homo sapiens (Human), UniProt Q12809); assay: hERG channel test: effect on amplitude of IKr in hERG transfected cells; conditions: for effect on the amplitude of IKr encoded by hERG (change in percentage relative to the control): hERG transfected human cells; for effect observed on the amplitude of IKr (in words): 1, 3 and 10 μM; for lengthening the QT time (conclusion from hERG test): under the experimental conditions; for pIC50: estimated from 1, 3 and 10 μM, read-out: Estimated IC50 for hERG channel blockade; for concentration from which the decrease of the amplitude of IKr starts: tested at 1, 3 and 10 μM; for decrease of the amplitude of IKr: with 10 μM
Protocol: The object of the study was to track down the inhibition profile of seven selective compounds from human cell lines stably transfected with the gene for expressing the IKr protein of the hERG potassium channel. Several MC1R agonist compounds and especially the compounds of interest in the context of the invention were evaluated. The toxicity evaluation was performed using three increasing concentrations (1, 3 and 10 μM) of 2 hERG transfected cells (no reference compound used) of the following compounds: • Compound 1: N-[(R)-2-[3-(4-hydroxybutoxy)-3-o-tolylazetidin-1-yl]-1-(4-methoxybenzyl)-2-oxoethyl]-3-(1H-imidazol-4-yl)propionamide • Compound 2: (S)-N-[(R)-2-(3-butoxy-3-o-tolylazetidin-1-yl)-1-(4-methoxybenzyl)-2-oxoethyl]-2-hydroxy-3-(1H-imidazol-4-yl)propionamide • Compound 3: 3-(1H-imidazol-4-yl)-N-{(R)-1-(4-methoxybenzyl)-2-oxo-2-[3-o-tolyl-3-(4,4,4-trifluorobutoxy)azetidin-1-yl]ethyl}propionamide • Compound 4: N-[(R)-2-(3-but-2-ynyloxy-3-o-tolylazetidin-1-yl)-1-(4-methoxybenzyl)-2-oxoethyl]-3-(5-methyl-1H-imidazol-4-yl)propionamide • Compound 5: N-[(R)-2-(3-cyclobutylmethoxy-3-o-tolylazetidin-1-yl)-1-(4-methoxybenzyl)-2-oxoethyl]-3-(5-methyl-1H-imidazol-4-yl)propionamide • Compound 6: N-[(R)-2-(3-cyclopropylmethoxy-3-o-tolylazetidin-1-yl)-1-(4-methoxybenzyl)-2-oxoethyl]-3-(5-methyl-1H-imidazol-4-yl)propionamide • Compound 7: N-[(R)-2-(3-butoxy-3-o-tolylazetidin-1-yl)-1-(4-methoxybenzyl)-2-oxoethyl]-3-guanidinopropionamide; bis(trifluoroacetic acid) salt
The effect on the amplitude of IKr encoded by hERG (as the changes in percentages relative to the control) are summarized per compound and per concentration in Table 1 below.

[2] = molecular target: hMC1R (Homo sapiens (Human), UniProt Q01726); assay: Transactivation test melanocortin receptors (CRE-Luc, HEK293), hMC1R; conditions: for pEC50: HEK293, pCRE-Luc, agonist mode, read-out: EC50 hMC1-R
Protocol: (§1) The aim of this example is to show the Melanocortine receptor selectivity of compound 1 and compound 6 of the present invention: • Cells: The lines HEK293 are transfected with vectors pCRE-Luc and hMC1R or hMC4R. The cells are cultured at 37° C. and 5% CO2, in DMEM medium supplemented with 10% foetal calf serum. • Test principle: In the presence of an activator (agonist), the melanocortin receptor will activate the cAMP pathway, which, via the vector CRE-Luc, will lead to the synthesis of luciferase. After addition of a lysis buffer containing a luminescent luciferase substrate, the luminescence proportional to the degree of activation or inhibition of receptor may be measured. • Testing the products: The products are dissolved at 10 mM in DMSO. They are tested as a response dose at 0.1% of DMSO final. The range comprising 10 points and a zero starts at 10 μM with four-fold dilutions. To test agonists, the products are tested alone. To determine the antagonist behaviour, the products of interest are tested in the presence of 1 nM NDP-MSH (reference agonist). The cells are inoculated at a rate of 5000 cells per well (384-well plate) in serum-free DMEM medium and incubated overnight at 37° C. and 5% CO2. • The products and the reference ligand (NDP-MSH) are added the following day and the plates are reincubated for 6 hours at 37° C. and 5% CO2. After adding the lysis buffer containing luciferin, the plates are read in a Top-Count machine. The results are normalized as percentage of activity using the 100% (cells+NDP-MSH at 10 nM) and 0% (cells alone) controls. An EC50 is calculated for each product using the XLFit software.

[3] = molecular target: hMC4R (Homo sapiens (Human), UniProt P32245); assay: Transactivation test melanocortin receptors (CRE-Luc, HEK293), hMC4R; conditions: HEK293, pCRE-Luc, agonist mode; read-out: EC50 hMC4-R
Protocol: as §1, with “The cells are inoculated at a rate of 5000 cells per well (384-well plate) in serum-free DMEM medium and incubated overnight at 37° C. and 5% CO2. • The products and the reference ligand (NDP-MSH) are added the following day and the plates are reincubated for 6 hours at 37° C. and 5% CO2.” left out, “The results are normalized as percentage of activity using the 100% (cells+NDP-MSH at 10 nM) and 0% (cells alone) controls.” left out

Chain of hMC1R (Q01726 whole entry): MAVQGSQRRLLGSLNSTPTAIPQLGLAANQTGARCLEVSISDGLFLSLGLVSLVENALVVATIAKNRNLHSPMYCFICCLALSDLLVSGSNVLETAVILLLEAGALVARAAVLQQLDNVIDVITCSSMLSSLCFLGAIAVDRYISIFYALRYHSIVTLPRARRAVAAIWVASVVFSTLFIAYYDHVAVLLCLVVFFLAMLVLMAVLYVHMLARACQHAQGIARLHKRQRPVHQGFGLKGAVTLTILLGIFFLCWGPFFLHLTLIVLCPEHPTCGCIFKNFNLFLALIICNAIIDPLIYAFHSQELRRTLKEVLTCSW
Chain of hERG potassium channel (Q12809 whole entry): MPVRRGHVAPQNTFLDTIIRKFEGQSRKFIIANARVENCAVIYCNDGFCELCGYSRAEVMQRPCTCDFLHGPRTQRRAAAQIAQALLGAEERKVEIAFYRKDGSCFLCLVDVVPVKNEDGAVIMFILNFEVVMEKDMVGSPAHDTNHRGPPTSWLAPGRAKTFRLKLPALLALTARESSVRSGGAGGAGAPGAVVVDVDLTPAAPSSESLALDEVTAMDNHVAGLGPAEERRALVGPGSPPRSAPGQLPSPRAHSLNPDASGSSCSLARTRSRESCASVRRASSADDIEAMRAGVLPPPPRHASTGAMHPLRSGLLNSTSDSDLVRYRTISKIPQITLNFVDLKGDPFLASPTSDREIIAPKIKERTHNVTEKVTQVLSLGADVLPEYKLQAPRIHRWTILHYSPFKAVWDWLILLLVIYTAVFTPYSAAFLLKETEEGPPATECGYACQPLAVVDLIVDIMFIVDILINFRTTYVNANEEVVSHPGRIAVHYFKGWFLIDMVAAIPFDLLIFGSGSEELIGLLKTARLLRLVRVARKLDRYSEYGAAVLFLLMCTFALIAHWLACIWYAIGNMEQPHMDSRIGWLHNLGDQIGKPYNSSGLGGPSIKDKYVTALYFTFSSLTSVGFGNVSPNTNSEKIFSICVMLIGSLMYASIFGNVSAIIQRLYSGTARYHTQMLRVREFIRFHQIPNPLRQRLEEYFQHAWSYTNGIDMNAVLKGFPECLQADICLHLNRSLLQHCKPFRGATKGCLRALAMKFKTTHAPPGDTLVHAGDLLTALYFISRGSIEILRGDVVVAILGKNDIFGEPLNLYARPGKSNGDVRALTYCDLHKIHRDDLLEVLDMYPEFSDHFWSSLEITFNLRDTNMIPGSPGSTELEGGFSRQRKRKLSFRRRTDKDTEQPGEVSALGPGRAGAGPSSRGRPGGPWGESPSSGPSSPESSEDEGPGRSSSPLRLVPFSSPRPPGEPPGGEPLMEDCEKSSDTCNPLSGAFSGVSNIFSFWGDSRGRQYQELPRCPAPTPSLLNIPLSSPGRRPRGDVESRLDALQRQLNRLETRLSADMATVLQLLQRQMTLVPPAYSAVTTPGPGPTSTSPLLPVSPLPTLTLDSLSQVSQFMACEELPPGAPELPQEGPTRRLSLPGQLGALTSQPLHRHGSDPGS
Chain of hMC4R (P32245 whole entry): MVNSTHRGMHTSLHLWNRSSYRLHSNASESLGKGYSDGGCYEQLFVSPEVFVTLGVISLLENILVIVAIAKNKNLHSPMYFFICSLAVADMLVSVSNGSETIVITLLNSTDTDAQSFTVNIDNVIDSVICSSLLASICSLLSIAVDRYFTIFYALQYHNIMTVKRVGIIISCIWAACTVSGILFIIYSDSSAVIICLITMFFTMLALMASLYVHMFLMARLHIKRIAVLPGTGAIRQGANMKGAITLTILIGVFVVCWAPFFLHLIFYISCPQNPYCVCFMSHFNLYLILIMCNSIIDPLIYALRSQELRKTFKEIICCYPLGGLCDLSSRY

## COc1ccc(C[C@@H](NC(=O)CCc2c[nH]cn2)C(=O)N2CC(OCCCCO)(c3ccccc3C)C2)cc1 [Compound 1, N-[(R)-2-[3-(4-hydroxybutoxy)-3-o-tolylazetidin-1-yl]-1-(4-methoxybenzyl)-2-oxoethyl]-3-(1H-imidazol-4-yl)propionamide]
[1]
  cardiotoxic alert on the hERG channel test: do not present any cardiotoxic alert
  effect observed on the amplitude of IKr (in words): no effect observed
  lengthening the QT time (conclusion from hERG test): did not exhibit this characteristic
[1]; 1 μM
  effect on the amplitude of IKr encoded by hERG (change in percentage relative to the control): −1.5 ± 2.5%
[1]; 3 μM
  effect on the amplitude of IKr encoded by hERG (change in percentage relative to the control): −3.0 ± 1.0%
[1]; 10 μM
  effect on the amplitude of IKr encoded by hERG (change in percentage relative to the control): −7.5 ± 3.5%
[2]
  melanocortin receptor selectivity (hMC1R versus hMC4R): hMC1R highly selective
  pEC50: 6.60
[3]
  pEC50: 5.10

## CCCCOC1(c2ccccc2C)CN(C(=O)[C@@H](Cc2ccc(OC)cc2)NC(=O)[C@@H](O)Cc2c[nH]cn2)C1 [Compound 2, (S)-N-[(R)-2-(3-butoxy-3-o-tolylazetidin-1-yl)-1-(4-methoxybenzyl)-2-oxoethyl]-2-hydroxy-3-(1H-imidazol-4-yl)propionamide]
[1]; 1 μM
  effect on the amplitude of IKr encoded by hERG (change in percentage relative to the control): +1.0 ± 1.0%
[1]; 3 μM
  effect on the amplitude of IKr encoded by hERG (change in percentage relative to the control): −5.0 ± 5.0%
[1]; 10 μM
  effect on the amplitude of IKr encoded by hERG (change in percentage relative to the control): −51.5 ± 6.5%
[1]
  effect observed on the amplitude of IKr (in words): modified but only at the highest concentration
  pIC50: 5.00
  lengthening the QT time (conclusion from hERG test): more substantially

## COc1ccc(C[C@@H](NC(=O)CCc2c[nH]cn2)C(=O)N2CC(OCCCC(F)(F)F)(c3ccccc3C)C2)cc1 [Compound 3, 3-(1H-imidazol-4-yl)-N-{(R)-1-(4-methoxybenzyl)-2-oxo-2-[3-o-tolyl-3-(4,4,4-trifluorobutoxy)azetidin-1-yl]ethyl}propionamide]
[1]; 1 μM
  effect on the amplitude of IKr encoded by hERG (change in percentage relative to the control): −16.0 ± 3.0%
[1]; 3 μM
  effect on the amplitude of IKr encoded by hERG (change in percentage relative to the control): −42.5 ± 5.5%
[1]; 10 μM
  effect on the amplitude of IKr encoded by hERG (change in percentage relative to the control): −86.5 ± 3.5%
[1]
  effect observed on the amplitude of IKr (in words): dose effect observed
  pIC50: < 5.52
  concentration from which the decrease of the amplitude of IKr starts: 1000 nM
  lengthening the QT time (conclusion from hERG test): more substantially
  decrease of the amplitude of IKr: 86.5%

## CC#CCOC1(c2ccccc2C)CN(C(=O)[C@@H](Cc2ccc(OC)cc2)NC(=O)CCc2nc[nH]c2C)C1 [Compound 4, N-[(R)-2-(3-but-2-ynyloxy-3-o-tolylazetidin-1-yl)-1-(4-methoxybenzyl)-2-oxoethyl]-3-(5-methyl-1H-imidazol-4-yl)propionamide]
[1]; 1 μM
  effect on the amplitude of IKr encoded by hERG (change in percentage relative to the control): −20.5 ± 9.5%
[1]; 3 μM
  effect on the amplitude of IKr encoded by hERG (change in percentage relative to the control): −22.0 ± 10.0%
[1]; 10 μM
  effect on the amplitude of IKr encoded by hERG (change in percentage relative to the control): −42.5 ± 2.5%
[1]
  effect observed on the amplitude of IKr (in words): dose effect observed
  pIC50: < 5.00
  concentration from which the decrease of the amplitude of IKr starts: 3000 nM
  lengthening the QT time (conclusion from hERG test): more substantially
  decrease of the amplitude of IKr: 42.5%

## COc1ccc(C[C@@H](NC(=O)CCc2nc[nH]c2C)C(=O)N2CC(OCC3CCC3)(c3ccccc3C)C2)cc1 [Compound 5, N-[(R)-2-(3-cyclobutylmethoxy-3-o-tolylazetidin-1-yl)-1-(4-methoxybenzyl)-2-oxoethyl]-3-(5-methyl-1H-imidazol-4-yl)propionamide]
[1]; 1 μM
  effect on the amplitude of IKr encoded by hERG (change in percentage relative to the control): −17.0 ± 4.0%
[1]; 3 μM
  effect on the amplitude of IKr encoded by hERG (change in percentage relative to the control): −49.5 ± 16.5%
[1]; 10 μM
  effect on the amplitude of IKr encoded by hERG (change in percentage relative to the control): −76.5 ± 17.5%
[1]
  effect observed on the amplitude of IKr (in words): dose effect observed
  pIC50: 5.52
  concentration from which the decrease of the amplitude of IKr starts: 1000 nM
  lengthening the QT time (conclusion from hERG test): more substantially
  decrease of the amplitude of IKr: 76.5%

## COc1ccc(C[C@@H](NC(=O)CCc2nc[nH]c2C)C(=O)N2CC(OCC3CC3)(c3ccccc3C)C2)cc1 [Compound 6, N-[(R)-2-(3-cyclopropylmethoxy-3-o-tolylazetidin-1-yl)-1-(4-methoxybenzyl)-2-oxoethyl]-3-(5-methyl-1H-imidazol-4-yl)propionamide]
[1]
  cardiotoxic alert on the hERG channel test: do not present any cardiotoxic alert
  effect observed on the amplitude of IKr (in words): no effect observed
  lengthening the QT time (conclusion from hERG test): did not exhibit this characteristic
[1]; 1 μM
  effect on the amplitude of IKr encoded by hERG (change in percentage relative to the control): −5.0 ± 3.0%
[1]; 3 μM
  effect on the amplitude of IKr encoded by hERG (change in percentage relative to the control): −9.5 ± 3.5%
[1]; 10 μM
  effect on the amplitude of IKr encoded by hERG (change in percentage relative to the control): −16.0 ± 7.0%
[2]
  melanocortin receptor selectivity (hMC1R versus hMC4R): hMC1R highly selective
  pEC50: 7.15
[3]
  pEC50: 5.35

## CCCCOC1(c2ccccc2C)CN(C(=O)[C@@H](Cc2ccc(OC)cc2)NC(=O)CCNC(=N)N)C1 [Compound 7, N-[(R)-2-(3-butoxy-3-o-tolylazetidin-1-yl)-1-(4-methoxybenzyl)-2-oxoethyl]-3-guanidinopropionamide]
[1]; 1 μM
  effect on the amplitude of IKr encoded by hERG (change in percentage relative to the control): −19.5 ± 4.5%
[1]; 3 μM
  effect on the amplitude of IKr encoded by hERG (change in percentage relative to the control): −29.5 ± 9.5%
[1]; 10 μM
  effect on the amplitude of IKr encoded by hERG (change in percentage relative to the control): −33.0 ± 12.0%
[1]
  effect observed on the amplitude of IKr (in words): slight dose effect observed
  pIC50: < 5.00
  concentration from which the decrease of the amplitude of IKr starts: 1000 nM
  lengthening the QT time (conclusion from hERG test): slightly
  decrease of the amplitude of IKr: 33%
